The values that follow come from patent US6383543B1, “Process for the extraction of an organic salt from plants, the salt, and other similar salts” (RAD Natural Technologies Ltd., priority 1998, dated 2002).

The nature of data set [1]: Comparative efficiency: time the antioxidant continues to inhibit oxidation of linoleic acid. It is filed as biochemical. The note with it: time until antioxidant is consumed and rate of change of absorption at 234 nm reverts to control. The method, then: The method is based on the rate of oxidation of linoleic acid (LA) to its conjugated diene hydroperoxide (Pryor et al., in J. Org. […] A 1% LA aq. emulsion was prepared with 1% Tween 20 and 0.05M sodium phosphate buffer (pH 7.4). A control sample contained 0.025 ml of the LA emulsion+2.87 ml. of the buffer+0.1 ml 0.05M ABAP; a test sample contained 0.05 ml of the LA emulsion+2.7-2.8 ml of the buffer+0.1 ml 0.05M ABAP+0.05-0.1 ml of the sample under test. Absorption at 234 nm is followed for 5 minutes to establish the uninhibited rate of autoxidation. […] The test antioxidant was added and the inhibited reaction was followed until the antioxidant was consumed and the rate of the absorption change at 234 nm reverted to that observed at the outset.

Data set [2] is described as follows: Solubility. To be noted: for Solubility: lipid or water; for solubility in acetone: b32: essentially 100% acetone. Format: physicochemical.
A short description of data set [3]: Antioxidant effect in oil in water emulsions containing soybean oil, TBA test at 50° C. To be noted: oil in water emulsion.
Method: (a) Oil in water emulsions were prepared from soybean oil (10%), Tween 80 (7%), Span 80 (3%), water (80%) and antioxidant (0.1 or 0.02%).
Data set [4] can be described thus: Antioxidant effect in water in oil emulsions from soybean oil, Rancimat (AOM) test at 100° C. To be noted: water in oil emulsion.
Data set [5] is described as follows: Antioxidant effect in bulk oil (soybean oil) at 60° C.
From the text: A concentrate was first prepared containing 40% lecithin, 40% oil (e.g. soybean oil), 20% propylene glycol and 4% based on the foregoing mixture of 65% (≡2.6% pure) sodium rosmarinate.
For data set [6] the following is noted: yes/no; cited from earlier work.
Data set [7] is described as follows: Stabilization of ascorbic acid (50% ethanol, 60° C., 24 hours, HPLC). The note with it: 10 mg/ml ascorbic acid, after 60° C. Here is the method: The experiment was repeated with the addition of 0.035 mg or 0.07 mg sodium rosmarinate.
Data set [8] is described as follows: Antioxidant effect in emulsions containing β-carotene. To be noted: over a 100 hour time period; 0.1%. Here is the method:
A model emulsion was then prepared by adding double-distilled water (25 ml) to the residue and diluting to 500 ml with phosphate buffer (pH 7.0). […] […] A control sample contained no antioxidant but instead, 95% ethanol (2 ml).

For Vitamin E, the “Efficiency of 10 μg” value in data set [1] amounted to 444 h. In data set [2], the Solubility result was “lipid”. Further, the Days until oxidation turned out to be 1 days in data set [3] (antioxidant 0.1%) and 4 days in data set [5] (concentration 0.06%). Moreover, in data set [4] (antioxidant 0.1%), the Hours until oxidation came out at 9.58 h. Also, in data set [6], the Toxicity result is “no”.

Consider `Cc1c(C)c2c(c(C)c1O)CCC(C)(C(=O)O)O2` (stereo not drawn) [Trolox], for which, in data set [1], the “Efficiency of 10 μg” value came out at 650 h. In addition, in data set [2], the Solubility entry is listed as “water”. Further, the Toxicity result in data set [6] was “no”.

For the compound `CC(C)(C)c1cc(O)ccc1O` [TBHQ, tertiary-butylhydroxyquinone], the “Efficiency of 10 μg” value in data set [1] was 432 h. The Solubility result in data set [2] is listed as “lipid”. The Toxicity result in data set [6] was “yes”.

In the case of `O=C(/C=C/c1ccc(O)c(O)c1)O[C@H](Cc1ccc(O)c(O)c1)C(=O)O` [sodium rosmarinate], in data set [1], the “Efficiency of 10 μg” value stood at 1413 h. In addition, in data set [2], the solubility in acetone result was “virtually acetone-insoluble” and the Solubility entry was “water”. In data set [5] (concentration 0.005% (as 0.2% of the concentrate)), this compound gave a Days until oxidation of 7 days. This compound had a Days until oxidation in data set [5] (concentration 0.013% (as 0.5% of the concentrate)) of 8 days. Also, the Toxicity entry in data set [6] is given as “no”.

With `CCCOC(=O)c1cc(O)c(O)c(O)c1` [PG, propyl gallate], in data set [1], the “Efficiency of 10 μg” value is 500 h. Moreover, in data set [2], the Solubility entry was “lipid”. Moreover, the Toxicity result in data set [6] was “yes”.

As to `O=C(/C=C/c1ccc(O)c(O)c1)OC(Cc1ccc(O)c(O)c1)C(=O)O` (stereo not drawn) [rosmarinic acid], the solubility in acetone entry in data set [2] is recorded as “acetone-soluble”. Moreover, the entries for the “% ascorbic acid” value in data set [7] (+0.035 mg additive) and in data set [7] (+0.07 mg additive) were 68% and 90%, respectively.

`O=C1O[C@H]([C@@H](O)CO)C(O)=C1O` [Vitamin C, ascorbic acid]: the Days until oxidation in data set [3] (antioxidant 0.1%) turned out to be 1 days. The compound also registered a Hours until oxidation in data set [4] (antioxidant 0.1%) of 25.20 h. Also, in data set [8], the “protection of β-carotene” value is “little protection”.

For the compound `COc1ccc(O)c(C(C)(C)C)c1` [BHA, butylated hydroxyanisole], the Days until oxidation amounted to 2 days in data set [3] (antioxidant 0.02%) and 4 days in data set [5] (concentration 0.02%). This compound showed a Hours until oxidation in data set [4] (antioxidant 0.02%) of 9.54 h.

For `Cc1cc(C(C)(C)C)c(O)c(C(C)(C)C)c1` [BHT, butylated hydroxytoluene], the “Efficiency of 10 μg” value in data set [1] was 814 h. Also, in data set [2], the Solubility result is reported as “lipid”. The Toxicity entry in data set [6] is given as “yes”.
